Patent publication US9856279B2 (AGIOS PHARMACEUTICALS, INC, priority 2011, dated 2018)
pIC50: −log10 of the molar value.

Key:
U87MG cells = experiment: Cellular assay for IDH1m inhibitors: inhibition of 2-HG production (LC-MS, 48 hours) in U87MG cells; format: cell-based; conditions: Homo sapiens, U-87 MG, inhibition of 2-HG production, U87R132H cells; read-out: U87R132H IC50
How it was run: (§1)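 HT1080 or U87MG cells were seeded at 5000/well in DMEM with 10% FBS, incubated overnight, then treated with compounds (0.2% DMSO final) for 48 h. Medium 2-HG was quantified by LC-MS, and IC50 was taken as the concentration reducing 2-HG by 50% versus DMSO control.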

HT1080 cells = experiment: Cellular assay for IDH1m inhibitors: inhibition of 2-HG production (LC-MS, 48 hours) in HT1080 cells; format: cell-based; conditions: Homo sapiens, HT-1080; inhibition of 2-HG production, HT1080 cells; read-out: HT1080 IC50
How it was run: as §1

IDH1 R132H = IDH1 R132H (Homo sapiens, UniProt O75874, R132H); experiment: Assay for IDH1 R132H inhibitors (NADPH/aKG, resazurin detection); format: biochemical; conditions: enzyme assay of Example 12; read-out: IDH1R132H IC50
Sequence of IDH1 R132H (O75874 whole entry R132H): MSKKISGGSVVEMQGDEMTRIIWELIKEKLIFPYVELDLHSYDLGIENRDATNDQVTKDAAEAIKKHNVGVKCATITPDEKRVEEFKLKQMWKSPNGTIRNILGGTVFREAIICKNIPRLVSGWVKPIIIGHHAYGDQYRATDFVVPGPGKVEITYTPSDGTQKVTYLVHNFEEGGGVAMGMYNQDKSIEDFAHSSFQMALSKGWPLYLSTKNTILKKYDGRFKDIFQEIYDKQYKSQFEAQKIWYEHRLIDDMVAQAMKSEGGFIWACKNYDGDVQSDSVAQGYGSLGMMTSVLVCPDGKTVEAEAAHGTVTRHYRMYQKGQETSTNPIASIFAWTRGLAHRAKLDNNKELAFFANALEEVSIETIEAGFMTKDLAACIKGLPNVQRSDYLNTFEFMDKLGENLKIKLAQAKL
How it was run: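 Read-out is resorufin fluorescence (Ex544/Em590) 5 min after adding a 30 μM resazurin detection mix. Before that, mutant enzyme (0.2 μg/ml in its mix) ran 50 min at room temperature with compound, 8 uM NADPH and 2 mM aKG (mix levels) in Tris pH 7.5 with NaCl, MgCl2, BSA.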

Row | pIC50 (U87MG cells) | pIC50 (HT1080 cells) | pIC50 (IDH1 R132H) | SMILES
1 | > 6.30 | > 6.30 | > 6.30 | C=Cc1cc(Nc2cc(C#N)c(N3CCN(C(=O)COC)[C@H](C4CC4)C3)nc2C2CC2)ccn1 [Compound 711, (R)-6-cyclopropyl-2-(3-cyclopropyl-4-(2-methoxyacetyl)piperazin-1-yl)-5-((2-vinylpyridin-4-yl)amino)nicotinonitrile]
2 | > 6.30 | > 6.30 | > 6.30 | C=Cc1cc(-c2cc(C#N)c(N3CCN(C(=O)CCOC)[C@H](C(C)C)C3)nc2C2CC2)ncn1 [Compound 639, (R)-6-cyclopropyl-2-(3-isopropyl-4-(3-methoxypropanoyl)piperazin-1-yl)-5-(6-vinylpyrimidin-4-yl)nicotinonitrile]
3 | > 6.30 | > 6.30 | > 6.30 | C=Cc1cc(Nc2c(C3CC3)nc(N3CCN(C(=O)CCO)[C@H](C(C)C)C3)c(C#N)c2C)ccn1 [Compound 799, (R)-6-cyclopropyl-2-(4-(3-hydroxypropanoyl)-3-isopropylpiperazin-1-yl)-4-methyl-5-((2-vinylpyridin-4-yl)amino)nicotinonitrile]
4 | > 6.30 | > 6.30 | > 6.30 | C=Cc1cc(-c2c(C3CC3)nc(N3CCN(C(=O)CCC4CCCC4)[C@H](C4CC4)C3)c(C#N)c2C)ccn1 [Compound 797, (R)-6-(4-(3-cyclopentylpropanoyl)-3-cyclopropylpiperazin-1-yl)-2-cyclopropyl-4-methyl-2′-vinyl-3,4′-bipyridine-5-carbonitrile]
5 | > 6.30 | > 6.30 | > 6.30 | C=Cc1cc(-c2cc(C#N)c(N3CCN(C(=O)CCO)[C@H](C4CC4)C3)nc2C2CC2)ncn1 [Compound 663, (R)-6-cyclopropyl-2-(3-cyclopropyl-4-(3-hydroxypropanoyl)piperazin-1-yl)-5-(6-vinylpyrimidin-4-yl)nicotinonitrile]
6 | 6.00 to 6.30 | 6.00 to 6.30 | > 6.30 | C=Cc1cc2c(-c3cc(C#N)c(N4CCN(C(=O)C5CC5)[C@H](C5CC5)C4)nc3C3CC3)cccc2cn1 [Compound 565, (R)-2-(4-(cyclopropanecarbonyl)-3-cyclopropylpiperazin-1-yl)-6-cyclopropyl-5-(3-vinylisoquinolin-5-yl)nicotinonitrile]
7 | > 6.30 | > 6.30 | > 6.30 | C=Cc1cc(-c2cc(C#N)c(N3CCN(C(=O)CCO)[C@H](C)C3)nc2C2CC2)c2ccncc2n1 [Compound 609, (R)-6-cyclopropyl-2-(4-(3-hydroxypropanoyl)-3-methylpiperazin-1-yl)-5-(2-vinyl-1,7-naphthyridin-4-yl)nicotinonitrile]
8 | > 6.30 | > 6.30 | > 6.30 | C=Cc1ccc2c(-c3cc(C#N)c(N4CCN(C(=O)CCO)[C@H](C)C4)nc3C3CC3)cccc2n1 [Compound 633, (R)-6-cyclopropyl-2-(4-(3-hydroxypropanoyl)-3-methylpiperazin-1-yl)-5-(2-vinylquinolin-5-yl)nicotinonitrile]
9 | > 6.30 | > 6.30 | > 6.30 | C=Cc1cc(-c2cc(C#N)c(N3CCN(C(=O)CCC4CCCO4)[C@H](C4CC4)C3)nc2C2CC2)ccn1 (stereo partly drawn) [Compound 800, 2-cyclopropyl-6-((3R)-3-cyclopropyl-4-(3-(tetrahydrofuran-2-yl)propanoyl)piperazin-1-yl)-2′-vinyl-3,4′-bipyridine-5-carbonitrile]

The next lines start with the compound.

Row | SMILES | pIC50 (U87MG cells) | pIC50 (HT1080 cells) | pIC50 (IDH1 R132H)
10 | C=CS(=O)(=O)N(c1cccc(-c2c(C3CC3)nc(N3CCN(C(=O)C4CC4)[C@H](C4CC4)C3)c(C#N)c2C)c1)S(=O)(=O)C=C [Compound 463, (R)—N-(3-(5-cyano-6-(4-(cyclopropanecarbonyl)-3-cyclopropylpiperazin-1-yl)-2-cyclopropyl-4-methylpyridin-3-yl)phenyl)-N-(vinylsulfonyl)ethenesulfonamide] | 5.00 to 6.00 | 5.00 to 6.00 | > 6.30
11 | C=Cc1ccc2c(-c3cc(C#N)c(N4CCN(C(=O)CC(F)(F)F)[C@H](C5CC5)C4)nc3C3CC3)cccc2n1 [Compound 551, (R)-6-cyclopropyl-2-(3-cyclopropyl-4-(3,3,3-trifluoropropanoyl)piperazin-1-yl)-5-(2-vinylquinolin-5-yl)nicotinonitrile] | > 6.30 | > 6.30 | > 6.30
12 | COCCC(=O)N1CCN(c2nc(C3CC3)c(-c3ccc4nc(N)sc4c3)cc2C#N)C[C@H]1C [Compound 417, (R)-5-(2-amino-benzothiazol-6-yl)-6-cyclopropyl-2-[4-(3-methoxy-propionyl)-3-methyl-piperazin-1-yl]-nicotinonitrile] | > 6.30 | > 6.30 | > 6.30
13 | COCCC(=O)N1CCN(c2nc(C3CC3)c(-c3cccc(NC(=O)C(F)F)c3)cc2C#N)C[C@H]1C [Compound 432, (R)—N-(3-(5-cyano-2-cyclopropyl-6-(4-(3-methoxypropanoyl)-3-methylpiperazin-1-yl)pyridin-3-yl)phenyl)-2,2-difluoroacetamide] | 5.00 to 6.00 | 5.00 to 6.00 | 6.00 to 6.30
14 | C=Cc1cc(-c2cc(C#N)c(N3CCN(C(=O)CCOC)[C@H](C4CC4)C3)nc2C2CC2)ccn1 [Compound 530, (R)-2-cyclopropyl-6-(3-cyclopropyl-4-(3-methoxypropanoyl)piperazin-1-yl)-2′-vinyl-3,4′-bipyridine-5-carbonitrile] | > 6.30 | > 6.30 | > 6.30
15 | COCCC(=O)N1CCN(c2nc(C3CC3)c(-c3ccc4c(c3)OCO4)c(C)c2C#N)C[C@H]1C [Compound 269, (R)-5-(benzo[d][1,3]dioxol-5-yl)-6-cyclopropyl-2-(4-(3-methoxypropanoyl)-3-methylpiperazin-1-yl)-4-methylnicotinonitrile] | 5.00 to 6.00 | 5.00 to 6.00 | > 6.30
16 | COCCC(=O)N1CCN(c2nc(C3CC3)c(-c3ccnc4ccccc34)cc2C#N)C[C@H]1C [Compound 315, (R)-6-cyclopropyl-2-(4-(3-methoxypropanoyl)-3-methylpiperazin-1-yl)-5-(quinolin-4-yl)nicotinonitrile] | 6.00 to 6.30 | > 6.30 | > 6.30
17 | COCCC(=O)N1CCN(c2nc(C3CC3)c(-c3c(C)noc3C)cc2C#N)C[C@H]1C [Compound 345, (R)-6-cyclopropyl-5-(3,5-dimethyl-isoxazol-4-yl)-2-[4-(3-methoxy-propionyl)-3-methyl-piperazin-1-yl]-nicotinonitrile] | 6.00 to 6.30 | 5.00 to 6.00 | > 6.30
18 | COCCC(=O)N1CCN(c2nc(C3CC3)c(-c3cc4ccccc4nc3Cl)cc2C#N)C[C@H]1C [Compound 360, (R)-5-(2-chloro-quinolin-3-yl)-6-cyclopropyl-2-[4-(3-methoxy-propionyl)-3-methyl-piperazin-1-yl]-nicotinonitrile] | 5.00 to 6.00 | 5.00 to 6.00 | > 6.30
19 | COCCC(=O)N1CCN(c2nc(C3CC3)c(-c3ccc(F)c(C#N)c3)c(C)c2C#N)C[C@H]1C [Compound 321, (R)-5-(3-cyano-4-fluoro-phenyl)-6-cyclopropyl-2-[4-(3-methoxy-propionyl)-3-methyl-piperazin-1-yl]-4-methyl-nicotinonitrile] | > 6.30 | 6.00 to 6.30 | > 6.30
